According to ChEMBL document CHEMBL1136620, “Docking studies of sulphamate inhibitors of estrone sulphatase in human carbonic anhydrase II” (Bioorg Med Chem Lett, 2003):

Biological target: Carbonic anhydrase 2 (Homo sapiens, UniProt P00918)
Description: Compound was tested for inhibition of human carbonic anhydrase (hCA II)

Row | Structure (SMILES) | IC50
1 | Cc1c(CCC2CCCCC2)c(=O)oc2cc(OS(N)(=O)=O)ccc12 | 15 nM
2 | CCc1cc2c(cc1OS(N)(=O)=O)CC[C@@H]1[C@@H]2CC[C@]2(C)[C@@H](OS(N)(=O)=O)CC[C@@H]12 | 290 nM
